Test results from patent publication US5977097A, “1-methylcarbapenem derivatives” (Sankyo Company Limited, priority 1996, dated 1999).
In brackets after ≈: the same amount, converted by molar mass.

Assays:
[1] = test system: Pseudomonas aeruginosa 1008; test: In vivo antibacterial activity, treatment of infected mice (Test 3); set-up: species or system mice (SPF, DDY, male); details: Pseudomonas aeruginosa, 1008, sc, 120 h, intraperitoneal infection, subcutaneous twice (immediately and 4 h after inoculation), survival at five days, expressed as single dose, read-out: Treatment against infections, 50% effective dose (ED50)
Description: The culture of the bacterial strain to be tested was inoculated intraperitoneally to groups of mice (SPF, DDY, male), each group consisting of 7 animals. A solution of the test compound was subcutaneously administered twice in total to the mice, once immediately and once four hours after the inoculation. From the survival ratio five days after infection, the 50% effective dose (ED50 : mg/kg) was determined by the Probit method and the single dose of test compound was indicated. The test results of the compound of Example 3, compound A and Meropenem against Pseudomonas aeruginosa 1008 are shown in Table 4. Incidentally, Compound A is as described above.

Escherichia coli NIHJ [2] = test: In vitro antibacterial activity (Test 2); assay type: cell-based; details: Nutrient Agar Eiken, read-out: Minimum Growth Inhibitory Concentration (MIC)
Description: (§1) Antibacterial activity was measured by the agar plate dilution method, whereby the minimum growth inhibitory concentration (MIC: μg/ml) against various pathogenic bacteria was determined. The test results on the antibacterial activity of the compounds of the invention of Examples 3 and 7 against Staphylococcus aureus 209P, Escherichia coli NIHJ and Pseudomonas aeruginosa No. 7 are shown in Table 2.
(§2) The antibacterial activities of the compounds of the invention of Examples 3 and 7 and meropenem against Staphylococcus aureus 209P, Escherichia coli NIHJ and Pseudomonas aeruginosa 3719 (strain resistant to meropenem) are shown in Table 3.
(§3) The medium used for the measurement was Nutrient Agar Eiken (Eiken Chemicals Co., Ltd.).

[3] = test system: Staphylococcus aureus 209P; test: In vitro antibacterial activity (Test 2); assay type: cell-based; details: Nutrient Agar Eiken, read-out: Minimum Growth Inhibitory Concentration (MIC)
Description: as §1, §2, §3

[4] = test system: Pseudomonas aeruginosa 3719 (strain resistant to meropenem); test: In vitro antibacterial activity (Test 2); assay type: cell-based; details: Pseudomonas aeruginosa 3719 (resistant to meropenem); Nutrient Agar Eiken; read-out: Minimum Growth Inhibitory Concentration (MIC)
Description: as §1, §2, §3

[5] = Pharmacokinetics such as half-life in blood; details: in vivo
Pseudomonas aeruginosa = test: Antibacterial activity against Pseudomonas aeruginosa compared with aminomethyl compounds A and B; assay type: cell-based
Description: Antibacterial activity was measured by the agar plate dilution method, whereby the minimum growth inhibitory concentration (MIC: μg/ml) against various pathogenic bacteria was determined. The test results on the antibacterial activity of the compounds of the invention of Examples 3 and 7 against Staphylococcus aureus […], Escherichia coli NIHJ and Pseudomonas aeruginosa No. 7 are shown in Table 2. Incidentally, Compounds A and B used for comparison are compounds of Example 3 in Japanese Patent Application Kokai No. Hei 5-310740 [compounds represented by the formula (I) of the present invention, wherein R^1, R^2 and R^3 represent hydrogen atoms]. Compound A has the R configuration at the binding position of the aminomethyl group. Compound B has the S configuration at the binding position of the aminomethyl group. The culture of the bacterial strain to be tested was inoculated intraperitoneally to groups of mice (SPF, DDY, male), each group consisting of 7 animals. A solution of the test compound was subcutaneously administered twice in total to the mice, once immediately and once four hours after the inoculation. From the survival ratio five days after infection, the 50% effective dose (ED50 : mg/kg) was determined by the Probit method and the single dose of test compound was indicated.

Nephrotoxicity = assay type: in vivo; details: rabbits, intravenous, 200 mg/kg
Description: When the compounds of the present invention were administered to rabbits, the incorporation in to the renal cortex is relatively low.

[6] = test system: Pseudomonas aeruginosa No. 7; test: In vitro antibacterial activity by agar plate dilution method (Test 1); assay type: cell-based; details: Mueller-Hinton II agar, read-out: Minimum Growth Inhibitory Concentration (MIC)
Description: (§4) Antibacterial activity was measured by the agar plate dilution method, whereby the minimum growth inhibitory concentration (MIC: μg/ml) against various pathogenic bacteria was determined. The test results on the antibacterial activity of the compounds of the invention of Examples 3 and 7 against Staphylococcus aureus […], Escherichia coli NIHJ and Pseudomonas aeruginosa No. 7 are shown in Table 2. Incidentally, Compounds A and B used for comparison are compounds of Example 3 in Japanese Patent Application Kokai No. Hei 5-310740 [compounds represented by the formula (I) of the present invention, wherein R^1, R^2 and R^3 represent hydrogen atoms]. Compound A has the R configuration at the binding position of the aminomethyl group. Compound B has the S configuration at the binding position of the aminomethyl group. The medium used for the measurement was Mueller-Hinton II agar (MHA, Becton Dikinson Microbiology Systems).

Escherichia coli NIHJ [7] = test: as above; assay type: cell-based; details: Mueller-Hinton II agar, read-out: Minimum Growth Inhibitory Concentration (MIC)
Description: as §4

[8] = test system: Staphylococcus aureus 209P; test: as above; assay type: cell-based; details: Mueller-Hinton II agar, read-out: Minimum Growth Inhibitory Concentration (MIC)
Description: as §4

MIC (Escherichia coli NIHJ [2]) [µg/mL] | MIC [3] [µg/mL] | MIC [4] [µg/mL] | MIC [6] [µg/mL] | MIC (Escherichia coli NIHJ [7]) [µg/mL] | MIC [8] [µg/mL] | SMILES | ED50 [1] [mg/kg] | pharmacokinetic properties such as half-life in blood [5] | activity against Pseudomonas aeruginosa (Pseudomonas aeruginosa) | nephrotoxicity (Nephrotoxicity)
≤ 0.01 | 0.02 (≈ 0.0522 µM) | 6.2 (≈ 16.2 µM) |  |  |  | C[C@@H](O)[C@H]1C(=O)N2C(C(=O)O)=C(S[C@@H]3CN[C@H](C(=O)N(C)C)C3)[C@H](C)[C@H]12 [Meropenem, meropenem, reference compound] | 0.72 |  |  | 
≤ 0.01 | ≤ 0.01 | 0.2 (≈ 0.442 µM) | 0.05 (≈ 0.11 µM) | 0.02 (≈ 0.0442 µM) | 0.02 (≈ 0.0442 µM) | CNC[C@H]1CCN(C(=O)[C@@H]2C[C@H](SC3=C(C(=O)O)N4C(=O)[C@H]([C@@H](C)O)[C@H]4[C@H]3C)CN2)C1 [Example 3, (1R,5S,6S)-6-[(1R)-1-Hydroxyethyl]-1-methyl-2-[(2S,4S)-2-[(3R)-3-methylaminomethylpyrrolidin-1-ylcarbonyl]pyrrolidin-4-ylthio]-1-carbapen-2-em-3-carboxylic acid] | 0.22 | excellent pharmacokinetic properties such as half-life in blood | superior activity against Pseudomonas aeruginosa | did not exhibit nephrotoxicity
≤ 0.01 | ≤ 0.01 | 0.1 (≈ 0.208 µM) | 0.05 (≈ 0.104 µM) | 0.02 (≈ 0.0416 µM) | 0.02 (≈ 0.0416 µM) | C[C@@H](O)[C@H]1C(=O)N2C(C(=O)O)=C(S[C@@H]3CN[C@H](C(=O)N4CC[C@H](CNC(=N)N)C4)C3)[C@H](C)[C@H]12 [Example 7, (1R,5S,6S)-2-[(2S,4S)-2-[(3R)-3-Guanidinomethylpyrrolidin-1-ylcarbonyl]pyrrolidin-4-ylthio]-6-[(1R)-1-hydroxyethyl]-1-methyl-1-carbapen-2-em-3-carboxylic acid] |  |  |  | 
